Source: patent US6737383B1, “Herbicidal oxadiazolidines” (priority 1999, dated 2004)

Columns and labels:
smallflower flatsedge = assay: Test B flood test smallflower flatsedge; type: in vivo, Cyperus difformis
Outline: (§1)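 Flood test on plants grown to the 2-leaf stage; treated plants kept in greenhouse twelve to sixteen days, then visually rated against controls on a 0 (no effect) to 10 (complete control) scale.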

winter wheat [1] = assay: Test E winter wheat; type: in vivo, Triticum aestivum; details: Preemergence; for Wheat (winter) plant response rating (0 to 100 scale): Rate 250 g/ha
wild oat [2] = assay: Test E wild oat; type: in vivo, Avena fatua; details: Preemergence; for Wild oat plant response rating (0 to 100 scale): Rate 250 g/ha
blackgrass [3] = assay: Test B pre/postemergence blackgrass; type: in vivo, Alopecurus myosuroides
Outline: (§2)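 Test chemicals in a non-phytotoxic solvent mixture with surfactant were sprayed preemergence onto planted seeds and postemergence onto plants 2 to 18 cm tall (1- to 4-leaf stage). After twelve to sixteen days in a greenhouse, injury was visually rated against untreated controls from 0 (no effect) to 10 (complete control).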

winter barley = assay: Test E winter barley; type: in vivo, Hordeum vulgare; details: Preemergence; for Barley (winter) plant response rating (0 to 100 scale): Rate 250 g/ha
Italian ryegrass = assay: Test E Italian ryegrass; type: in vivo, Lolium multiflorum; details: Preemergence; for I. Ryegrass plant response rating (0 to 100 scale): Rate 250 g/ha
blackgrass [4] = assay: Test E blackgrass; type: in vivo, Alopecurus myosuroides; details: Preemergence; for Blackgrass plant response rating (0 to 100 scale): Rate 250 g/ha
rice = assay: Test B flood test rice; type: in vivo, Oryza sativa
Outline: as §1

bamyardgrass = assay: Test B flood test barnyardgrass; type: in vivo, Echinochloa crus-galli
Outline: as §1

green foxtail = assay: Test E green foxtail; type: in vivo, Setaria viridis; details: Preemergence; for Green foxtail plant response rating (0 to 100 scale): Rate 250 g/ha
winter wheat [5] = assay: Test E winter wheat; type: in vivo, Triticum aestivum; details: Postemergence; for Plant response rating, Wheat (winter): 0 to 100 scale
Outline: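 Visual evaluation versus untreated controls after about 21 to 28 days in the greenhouse. Compound was in a surfactant-containing non-phytotoxic solvent; postemergence plants were treated at the 1- to 4-leaf stage, grown in a 60:40 sandy loam and potting mix blend.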

wild oat [6] = assay: Test B pre/postemergence wild oat; type: in vivo, Avena fatua
Outline: as §2

[7] = Rate 62 g/ha, headed Pre-emergence (flood test species), scale 0 to 10 (0 no effect, 10 complete control)
[8] = Rate 125 g/ha, Pre-emergence, flood test species, scale 0 to 10 where 0 is no effect and 10 is complete control
[9] = Rate 250 g/ha, Pre-emergence, flood-test species, scale 0 to 10, 0 is no effect, 10 is complete control
[10] = Rate 500 g/ha, Pre-emergence, flood test species, scale 0 to 10 (0 no effect, 10 complete control)
[11] = Rate 500 g/ha, 0 to 100 scale where 0 is no effect and 100 is complete control
[12] = Rate 1000 g/ha, 0 to 100 scale, 0 no effect, 100 complete control
[13] = Preemergence, Rate 62 g/ha, scale of 0 to 10 where 0 is no effect and 10 is complete control
[14] = Preemergence, Rate 250 g/ha, scale of 0 to 10 where 0 is no effect and 10 is complete control
[15] = Preemergence, Rate 500 g/ha, scale of 0 to 10 where 0 is no effect and 10 is complete control
[16] = Rate 62 g/ha, Postemergence, scale of 0 to 10 where 0 is no effect and 10 is complete control
[17] = Rate 125 g/ha, Postemergence, scale 0 to 10
[18] = Rate 125 g/ha, Preemergence, scale of 0 to 10 where 0 is no effect and 10 is complete control
[19] = Rate 31 g/ha, 0 to 100 scale, 0 no effect, 100 complete control
[20] = Rate 62 g/ha, 0 to 100 scale, 0 no effect, 100 complete control
[21] = Rate 125 g/ha, 0 to 100 scale (0 no effect, 100 complete control)
[22] = Preemergence, Rate 31 g/ha, visual rating, scale 0 to 10 (0 no effect, 10 complete control)
[23] = Rate 500 g/ha, Postemergence, scale 0 to 10, 0 no effect, 10 complete control

C#CCn1c(=O)on(C(=O)N(c2ccc(F)cc2)C(C)C)c1=O [Compound 212]
S. Flatsedge plant response rating (smallflower flatsedge; [7]): 0
S. Flatsedge plant response rating (smallflower flatsedge; [8]): 0
S. Flatsedge plant response rating (smallflower flatsedge; [9]): 0
S. Flatsedge plant response rating (smallflower flatsedge; [10]): 0
Wheat (winter) plant response rating (0 to 100 scale) (winter wheat [1]): 10
Plant response rating, Wheat (winter) (winter wheat [1]; [11]): 30
Plant response rating, Wheat (winter) (winter wheat [1]; [12]): 60
Wild oat plant response rating (0 to 100 scale) (wild oat [2]): 60
Plant response rating, Wild oat (wild oat [2]; [11]): 70
Plant response rating, Wild oat (wild oat [2]; [12]): 70
Blackgrass plant response rating (blackgrass [3]; [13]): 4
Blackgrass plant response rating (blackgrass [3]; [14]): 7
Plant response rating, Blackgrass (blackgrass [3]; [15]): 9
Blackgrass plant response rating (blackgrass [3]; [16]): 6
Blackgrass plant response rating (blackgrass [3]; [17]): 6
Blackgrass plant response rating (blackgrass [3]; [18]): 4
Plant response rating (0 to 10; 0 is no effect, 10 is complete control), Blackgrass (blackgrass [3]; Rate 250 g/ha, Postemergence): 6
Blackgrass plant response rating (blackgrass [3]; Rate 500 g/ha, Postemergence, scale 0 to 10): 7
Barley (winter) plant response rating (0 to 100 scale) (winter barley): 20
Plant response rating, Barley (winter) (winter barley; [11]): 40
Plant response rating, Barley (winter) (winter barley; [12]): 50
I. Ryegrass plant response rating (0 to 100 scale) (Italian ryegrass): 60
Plant response rating, I. Ryegrass (Italian ryegrass; [11]): 70
Plant response rating, I. Ryegrass (Italian ryegrass; [12]): 70
Blackgrass plant response rating (0 to 100 scale) (blackgrass [4]): 20
Plant response rating, Blackgrass (blackgrass [4]; [11]): 50
Plant response rating, Blackgrass (blackgrass [4]; [12]): 65
Rice plant response rating (rice; [7]): 0
Rice plant response rating (rice; [8]): 0
Rice plant response rating (rice; [9]): 0
Rice plant response rating (rice; [10]): 0
Barnyardgrass plant response rating (bamyardgrass; [7]): 0
Barnyardgrass plant response rating (bamyardgrass; [8]): 0
Barnyardgrass plant response rating (bamyardgrass; [9]): 0
Barnyardgrass plant response rating (bamyardgrass; [10]): 0
Green foxtail plant response rating (0 to 100 scale) (green foxtail): 55
Plant response rating, Green foxtail (green foxtail; [11]): 65
Plant response rating, Green foxtail (green foxtail; [12]): 100
Plant response rating, Wheat (winter) (winter wheat [5]; Rate 1000 g/ha, 0 is no effect and 100 is complete control): 75
Plant response rating, Wheat (winter) (winter wheat [5]; Rate 500 g/ha, 0 is no effect, 100 is complete control): 70
Wild oats plant response rating (wild oat [6]; [13]): 0
Wild oats plant response rating (wild oat [6]; [14]): 3
Plant response rating, Wild oats (wild oat [6]; [15]): 7
Wild oats plant response rating (wild oat [6]; [16]): 0
Wild oats plant response rating (wild oat [6]; [17]): 0
Plant response rating (0 to 10; 0 is no effect, 10 is complete control), Wild oats (wild oat [6]; Rate 250 g/ha, Postemergence): 0

CC(C)N(C(=O)n1oc(=O)n(N(C)C)c1=O)c1ccccc1 [Compound 225]
S. Flatsedge plant response rating (smallflower flatsedge; [7]): 0
S. Flatsedge plant response rating (smallflower flatsedge; [8]): 0
S. Flatsedge plant response rating (smallflower flatsedge; [9]): 0
S. Flatsedge plant response rating (smallflower flatsedge; [10]): 0
Plant response rating, Wheat (winter) (winter wheat [1]; [19]): 10
Plant response rating, Wheat (winter) (winter wheat [1]; [20]): 30
Plant response rating, Wheat (winter) (winter wheat [1]; [21]): 65
Wheat (winter) plant response rating (0 to 100 scale) (winter wheat [1]): 70
Plant response rating, Wild oat (wild oat [2]; [19]): 30
Plant response rating, Wild oat (wild oat [2]; [20]): 40
Plant response rating, Wild oat (wild oat [2]; [21]): 50
Wild oat plant response rating (0 to 100 scale) (wild oat [2]): 60
Blackgrass plant response rating (blackgrass [3]; [22]): 0
Blackgrass plant response rating (blackgrass [3]; [13]): 2
Blackgrass plant response rating (blackgrass [3]; [14]): 10
Plant response rating, Blackgrass (blackgrass [3]; [15]): 10
Blackgrass plant response rating (blackgrass [3]; Rate 31 g/ha, Postemergence, scale 0 to 10): 0
Blackgrass plant response rating (blackgrass [3]; [16]): 6
Blackgrass plant response rating (blackgrass [3]; [17]): 9
Blackgrass plant response rating (blackgrass [3]; [18]): 10
Plant response rating (0 to 10; 0 is no effect, 10 is complete control), Blackgrass (blackgrass [3]; Rate 250 g/ha, Postemergence): 9
Blackgrass plant response rating (blackgrass [3]; [23]): 8
Plant response rating, Barley (winter) (winter barley; [19]): 0
Plant response rating, Barley (winter) (winter barley; [20]): 50
Plant response rating, Barley (winter) (winter barley; [21]): 50
Barley (winter) plant response rating (0 to 100 scale) (winter barley): 60
Plant response rating, I. Ryegrass (Italian ryegrass; [19]): 20
Plant response rating, I. Ryegrass (Italian ryegrass; [20]): 30
Plant response rating, I. Ryegrass (Italian ryegrass; [21]): 50
I. Ryegrass plant response rating (0 to 100 scale) (Italian ryegrass): 90
Plant response rating, Blackgrass (blackgrass [4]; [19]): 30
Plant response rating, Blackgrass (blackgrass [4]; [20]): 50
Plant response rating, Blackgrass (blackgrass [4]; [21]): 60
Blackgrass plant response rating (0 to 100 scale) (blackgrass [4]): 80
Rice plant response rating (rice; [7]): 0
Rice plant response rating (rice; [8]): 0
Rice plant response rating (rice; [9]): 0
Rice plant response rating (rice; [10]): 0
Barnyardgrass plant response rating (bamyardgrass; [7]): 0
Barnyardgrass plant response rating (bamyardgrass; [8]): 0
Barnyardgrass plant response rating (bamyardgrass; [9]): 0
Barnyardgrass plant response rating (bamyardgrass; [10]): 0
Plant response rating, Green foxtail (green foxtail; [19]): 30
Plant response rating, Green foxtail (green foxtail; [20]): 60
Plant response rating, Green foxtail (green foxtail; [21]): 50
Green foxtail plant response rating (0 to 100 scale) (green foxtail): 60
Plant response rating, Wheat (winter) (winter wheat [5]; Rate 31 g/ha, 0 no effect, 100 complete control): 50
Plant response rating, Wheat (winter) (winter wheat [5]; Rate 62 g/ha): 60
Plant response rating, Wheat (winter) (winter wheat [5]; Rate 125 g/ha, 0 is no effect, 100 is complete control): 75
Wheat (winter) plant response rating (winter wheat [5]; Rate 250 g/ha, 0 to 100 scale where 0 is no effect and 100 is complete control): 70
Wild oats plant response rating (wild oat [6]; [22]): 0
Wild oats plant response rating (wild oat [6]; [13]): 4
Wild oats plant response rating (wild oat [6]; [14]): 10
Plant response rating, Wild oats (wild oat [6]; [15]): 10
Wild oats plant response rating (wild oat [6]; [16]): 0
Wild oats plant response rating (wild oat [6]; [17]): 2
Wild oats plant response rating (wild oat [6]; [18]): 7
Plant response rating (0 to 10; 0 is no effect, 10 is complete control), Wild oats (wild oat [6]; Rate 250 g/ha, Postemergence): 3
Wild oats plant response rating (wild oat [6]; [23]): 2
